Assay results as given in ChEMBL document CHEMBL5291721, “A preclinical secondary pharmacology resource illuminates target-adverse drug reaction associations of marketed drugs” (Nat Commun, 2023).

How the values were obtained:
[1] = target: 5-hydroxytryptamine receptor 2B (Homo sapiens, UniProt P41595); type: functional, cell-based
[2] = target: T1, Alpha-2A adrenergic receptor (Homo sapiens, UniProt P08913)
T1 sequence (P08913 whole entry): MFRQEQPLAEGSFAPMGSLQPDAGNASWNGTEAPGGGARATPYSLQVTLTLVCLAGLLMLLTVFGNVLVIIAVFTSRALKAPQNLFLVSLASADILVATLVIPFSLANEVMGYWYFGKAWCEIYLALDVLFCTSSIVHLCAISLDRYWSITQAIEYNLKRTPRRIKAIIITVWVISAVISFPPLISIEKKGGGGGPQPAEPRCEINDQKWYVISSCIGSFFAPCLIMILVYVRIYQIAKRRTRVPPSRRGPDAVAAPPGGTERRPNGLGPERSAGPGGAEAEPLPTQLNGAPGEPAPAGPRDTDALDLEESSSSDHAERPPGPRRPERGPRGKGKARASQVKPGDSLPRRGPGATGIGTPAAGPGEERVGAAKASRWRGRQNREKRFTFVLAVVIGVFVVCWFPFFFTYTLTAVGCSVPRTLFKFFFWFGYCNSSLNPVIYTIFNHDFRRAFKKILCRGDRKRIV

Prothrombin = Prothrombin (Homo sapiens, UniProt P00734); type: functional
[3] = target: Sodium-dependent dopamine transporter (Homo sapiens, UniProt Q01959)
Chain of Sodium-dependent dopamine transporter (Q01959 whole entry): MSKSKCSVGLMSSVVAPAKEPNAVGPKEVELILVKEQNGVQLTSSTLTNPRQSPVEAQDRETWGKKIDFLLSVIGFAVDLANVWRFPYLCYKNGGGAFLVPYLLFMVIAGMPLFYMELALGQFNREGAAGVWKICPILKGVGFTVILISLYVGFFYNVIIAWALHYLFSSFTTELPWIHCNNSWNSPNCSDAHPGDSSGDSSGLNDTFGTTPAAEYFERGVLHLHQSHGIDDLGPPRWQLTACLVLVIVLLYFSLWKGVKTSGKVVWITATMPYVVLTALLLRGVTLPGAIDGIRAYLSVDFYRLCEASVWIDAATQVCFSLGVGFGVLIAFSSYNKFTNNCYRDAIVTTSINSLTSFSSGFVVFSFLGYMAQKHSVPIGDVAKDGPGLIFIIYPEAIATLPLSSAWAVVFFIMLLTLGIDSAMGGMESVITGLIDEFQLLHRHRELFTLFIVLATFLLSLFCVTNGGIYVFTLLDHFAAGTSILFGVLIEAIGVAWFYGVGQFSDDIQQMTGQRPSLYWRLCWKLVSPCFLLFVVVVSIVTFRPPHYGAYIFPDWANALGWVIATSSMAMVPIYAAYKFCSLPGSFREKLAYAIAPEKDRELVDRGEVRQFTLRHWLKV

[4] = target: Voltage-gated inwardly rectifying potassium channel KCNH2 (Homo sapiens, UniProt Q12809); type: functional
Chain of Voltage-gated inwardly rectifying potassium channel KCNH2 (Q12809 whole entry): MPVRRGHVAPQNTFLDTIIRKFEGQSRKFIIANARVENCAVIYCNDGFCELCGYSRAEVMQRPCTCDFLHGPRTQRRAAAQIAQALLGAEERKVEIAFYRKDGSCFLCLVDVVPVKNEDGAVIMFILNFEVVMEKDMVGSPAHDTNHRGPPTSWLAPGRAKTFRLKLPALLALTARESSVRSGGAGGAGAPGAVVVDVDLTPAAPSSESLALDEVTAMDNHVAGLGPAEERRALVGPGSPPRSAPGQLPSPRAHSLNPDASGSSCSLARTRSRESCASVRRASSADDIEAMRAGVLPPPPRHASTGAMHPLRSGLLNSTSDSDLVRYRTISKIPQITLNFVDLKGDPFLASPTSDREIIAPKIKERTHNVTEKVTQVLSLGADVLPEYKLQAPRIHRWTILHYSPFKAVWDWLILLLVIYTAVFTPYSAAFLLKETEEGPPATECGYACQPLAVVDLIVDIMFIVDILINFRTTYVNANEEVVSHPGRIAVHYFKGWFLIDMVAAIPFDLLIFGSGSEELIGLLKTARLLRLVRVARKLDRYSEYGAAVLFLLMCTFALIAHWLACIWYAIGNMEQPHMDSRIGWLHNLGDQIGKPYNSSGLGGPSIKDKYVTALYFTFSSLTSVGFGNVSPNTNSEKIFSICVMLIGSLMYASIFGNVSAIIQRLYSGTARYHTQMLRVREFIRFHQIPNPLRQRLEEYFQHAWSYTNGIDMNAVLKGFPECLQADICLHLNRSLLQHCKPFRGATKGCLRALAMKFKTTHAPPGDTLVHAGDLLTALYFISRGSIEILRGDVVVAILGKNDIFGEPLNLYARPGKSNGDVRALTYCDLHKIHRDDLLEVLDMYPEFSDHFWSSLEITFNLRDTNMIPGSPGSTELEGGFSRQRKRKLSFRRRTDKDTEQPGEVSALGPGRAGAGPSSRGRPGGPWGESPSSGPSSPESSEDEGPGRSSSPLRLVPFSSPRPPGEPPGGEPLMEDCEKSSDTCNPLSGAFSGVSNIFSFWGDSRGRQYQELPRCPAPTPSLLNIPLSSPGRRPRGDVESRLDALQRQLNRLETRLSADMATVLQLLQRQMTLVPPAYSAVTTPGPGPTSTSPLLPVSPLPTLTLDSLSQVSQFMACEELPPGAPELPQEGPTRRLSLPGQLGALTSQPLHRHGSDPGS

[5] = target: cGMP-inhibited 3',5'-cyclic phosphodiesterase 3A (Homo sapiens, UniProt Q14432); type: functional
Chain of cGMP-inhibited 3',5'-cyclic phosphodiesterase 3A (Q14432 whole entry): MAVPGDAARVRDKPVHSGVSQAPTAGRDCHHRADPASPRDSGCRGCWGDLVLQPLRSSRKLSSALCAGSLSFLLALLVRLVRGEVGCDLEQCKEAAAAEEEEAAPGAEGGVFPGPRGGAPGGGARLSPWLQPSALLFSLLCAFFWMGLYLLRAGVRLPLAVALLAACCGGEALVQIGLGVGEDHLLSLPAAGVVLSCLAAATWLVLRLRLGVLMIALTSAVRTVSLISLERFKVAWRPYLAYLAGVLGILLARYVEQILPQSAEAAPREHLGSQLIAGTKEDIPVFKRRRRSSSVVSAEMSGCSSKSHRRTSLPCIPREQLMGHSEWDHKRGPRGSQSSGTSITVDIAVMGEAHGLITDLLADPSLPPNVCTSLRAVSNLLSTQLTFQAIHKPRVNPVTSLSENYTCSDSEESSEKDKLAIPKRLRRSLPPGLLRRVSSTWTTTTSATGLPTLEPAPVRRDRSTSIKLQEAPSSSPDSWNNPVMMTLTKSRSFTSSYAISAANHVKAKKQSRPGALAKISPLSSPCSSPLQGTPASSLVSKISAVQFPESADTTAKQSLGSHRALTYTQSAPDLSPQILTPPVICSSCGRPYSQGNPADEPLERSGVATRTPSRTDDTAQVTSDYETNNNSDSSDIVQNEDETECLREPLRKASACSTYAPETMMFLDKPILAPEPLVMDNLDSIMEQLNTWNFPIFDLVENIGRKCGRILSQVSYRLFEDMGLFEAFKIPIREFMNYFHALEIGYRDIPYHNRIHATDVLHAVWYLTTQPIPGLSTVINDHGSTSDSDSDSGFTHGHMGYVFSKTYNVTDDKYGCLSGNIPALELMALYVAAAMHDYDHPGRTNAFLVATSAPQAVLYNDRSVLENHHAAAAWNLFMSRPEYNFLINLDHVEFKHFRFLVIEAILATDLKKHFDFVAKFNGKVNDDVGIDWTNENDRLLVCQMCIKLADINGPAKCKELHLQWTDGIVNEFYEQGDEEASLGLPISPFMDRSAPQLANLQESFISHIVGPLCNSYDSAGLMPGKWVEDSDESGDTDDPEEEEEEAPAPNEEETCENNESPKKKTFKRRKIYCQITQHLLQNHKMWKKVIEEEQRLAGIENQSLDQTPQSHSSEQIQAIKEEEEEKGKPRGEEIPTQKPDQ

Acetylcholinesterase = Acetylcholinesterase (Homo sapiens, UniProt P22303); type: functional
[6] = target: 3',5'-cyclic-AMP phosphodiesterase 4A (Homo sapiens, UniProt P27815); type: functional
Chain of 3',5'-cyclic-AMP phosphodiesterase 4A (P27815 whole entry): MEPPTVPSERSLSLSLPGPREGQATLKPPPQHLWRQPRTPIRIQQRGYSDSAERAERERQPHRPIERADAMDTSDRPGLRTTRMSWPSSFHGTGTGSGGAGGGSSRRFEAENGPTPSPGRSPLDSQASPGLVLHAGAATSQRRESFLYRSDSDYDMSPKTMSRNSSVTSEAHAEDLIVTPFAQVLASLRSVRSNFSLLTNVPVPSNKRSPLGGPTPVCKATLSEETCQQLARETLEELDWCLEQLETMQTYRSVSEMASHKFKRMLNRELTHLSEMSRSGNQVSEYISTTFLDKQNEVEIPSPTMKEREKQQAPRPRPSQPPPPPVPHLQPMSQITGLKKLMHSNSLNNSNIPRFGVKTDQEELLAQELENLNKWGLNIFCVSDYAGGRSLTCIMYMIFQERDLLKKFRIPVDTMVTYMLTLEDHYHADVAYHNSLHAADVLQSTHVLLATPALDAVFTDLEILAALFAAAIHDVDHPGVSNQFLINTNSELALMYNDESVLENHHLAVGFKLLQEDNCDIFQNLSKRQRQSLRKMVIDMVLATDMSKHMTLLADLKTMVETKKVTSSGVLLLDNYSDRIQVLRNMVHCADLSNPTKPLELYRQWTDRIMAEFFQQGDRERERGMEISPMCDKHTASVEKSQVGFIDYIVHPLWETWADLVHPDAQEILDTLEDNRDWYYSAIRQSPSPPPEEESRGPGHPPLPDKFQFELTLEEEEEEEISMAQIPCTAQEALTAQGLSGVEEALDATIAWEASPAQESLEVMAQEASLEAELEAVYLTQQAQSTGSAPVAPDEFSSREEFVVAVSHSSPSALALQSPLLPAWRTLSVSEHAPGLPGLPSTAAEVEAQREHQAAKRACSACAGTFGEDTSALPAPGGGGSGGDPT

[7] = target: T2, 5-hydroxytryptamine receptor 1A (Homo sapiens, UniProt P08908)
T2 sequence (P08908 whole entry): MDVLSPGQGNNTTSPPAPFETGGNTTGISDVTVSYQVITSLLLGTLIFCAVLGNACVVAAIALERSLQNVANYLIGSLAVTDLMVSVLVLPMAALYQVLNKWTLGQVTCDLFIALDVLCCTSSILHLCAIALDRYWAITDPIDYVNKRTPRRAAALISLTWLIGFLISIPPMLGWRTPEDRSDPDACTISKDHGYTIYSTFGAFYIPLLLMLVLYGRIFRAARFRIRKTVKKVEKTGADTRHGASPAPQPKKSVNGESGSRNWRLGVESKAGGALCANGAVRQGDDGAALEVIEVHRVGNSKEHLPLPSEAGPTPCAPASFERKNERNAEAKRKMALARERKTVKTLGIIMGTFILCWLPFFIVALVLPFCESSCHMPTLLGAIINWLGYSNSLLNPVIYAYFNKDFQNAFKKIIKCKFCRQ

Thromboxane A2 receptor [8] = target: T3, Thromboxane A2 receptor (Homo sapiens, UniProt P21731); type: functional, cell-based
T3 sequence (P21731 whole entry): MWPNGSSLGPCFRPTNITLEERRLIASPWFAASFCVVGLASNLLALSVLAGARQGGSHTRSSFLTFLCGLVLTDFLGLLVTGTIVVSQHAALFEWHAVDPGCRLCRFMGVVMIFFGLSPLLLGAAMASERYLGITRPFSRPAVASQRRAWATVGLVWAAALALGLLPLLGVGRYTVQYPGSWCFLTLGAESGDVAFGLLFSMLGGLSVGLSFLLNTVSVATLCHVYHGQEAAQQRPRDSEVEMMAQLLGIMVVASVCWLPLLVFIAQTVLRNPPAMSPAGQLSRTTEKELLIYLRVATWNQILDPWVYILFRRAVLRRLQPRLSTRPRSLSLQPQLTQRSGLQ

[9] = target: T4, Amine oxidase [flavin-containing] A (Homo sapiens, UniProt P21397); type: functional
T4 sequence (P21397 whole entry): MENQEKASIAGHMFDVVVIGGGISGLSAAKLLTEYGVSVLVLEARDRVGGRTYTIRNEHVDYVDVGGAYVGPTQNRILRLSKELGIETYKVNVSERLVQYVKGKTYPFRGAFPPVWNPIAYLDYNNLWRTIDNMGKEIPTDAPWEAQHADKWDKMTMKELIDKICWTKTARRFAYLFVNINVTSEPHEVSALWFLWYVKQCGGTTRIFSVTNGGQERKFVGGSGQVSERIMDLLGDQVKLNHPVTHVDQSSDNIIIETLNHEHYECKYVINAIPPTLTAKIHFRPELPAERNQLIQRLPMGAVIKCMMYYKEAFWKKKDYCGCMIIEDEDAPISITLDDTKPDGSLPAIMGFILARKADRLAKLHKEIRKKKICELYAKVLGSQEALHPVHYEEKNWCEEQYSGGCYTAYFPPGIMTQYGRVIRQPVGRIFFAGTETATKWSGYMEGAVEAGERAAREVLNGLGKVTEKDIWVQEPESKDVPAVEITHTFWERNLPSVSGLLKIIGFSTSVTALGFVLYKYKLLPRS

Thromboxane A2 receptor [10] = target: T3, Thromboxane A2 receptor; type: functional, cell-based; remark: listed apart in the source
Histamine H3 receptor = Histamine H3 receptor (Homo sapiens, UniProt Q9Y5N1)
Chain of Histamine H3 receptor (Q9Y5N1 whole entry): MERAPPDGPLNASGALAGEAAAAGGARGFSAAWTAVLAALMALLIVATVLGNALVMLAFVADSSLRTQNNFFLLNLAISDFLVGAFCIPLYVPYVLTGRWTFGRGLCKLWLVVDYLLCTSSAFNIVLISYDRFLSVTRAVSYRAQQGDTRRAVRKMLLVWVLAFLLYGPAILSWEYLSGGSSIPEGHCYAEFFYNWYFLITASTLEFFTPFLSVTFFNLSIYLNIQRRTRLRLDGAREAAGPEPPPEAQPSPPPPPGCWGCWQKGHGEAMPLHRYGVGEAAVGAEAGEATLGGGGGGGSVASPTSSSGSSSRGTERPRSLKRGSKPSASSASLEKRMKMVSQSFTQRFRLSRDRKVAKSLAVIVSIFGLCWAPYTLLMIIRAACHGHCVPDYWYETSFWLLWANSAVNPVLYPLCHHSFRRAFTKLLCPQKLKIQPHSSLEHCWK

[11] = target: T5, Muscarinic acetylcholine receptor M2 (Homo sapiens, UniProt P08172)
T5 sequence (P08172 whole entry): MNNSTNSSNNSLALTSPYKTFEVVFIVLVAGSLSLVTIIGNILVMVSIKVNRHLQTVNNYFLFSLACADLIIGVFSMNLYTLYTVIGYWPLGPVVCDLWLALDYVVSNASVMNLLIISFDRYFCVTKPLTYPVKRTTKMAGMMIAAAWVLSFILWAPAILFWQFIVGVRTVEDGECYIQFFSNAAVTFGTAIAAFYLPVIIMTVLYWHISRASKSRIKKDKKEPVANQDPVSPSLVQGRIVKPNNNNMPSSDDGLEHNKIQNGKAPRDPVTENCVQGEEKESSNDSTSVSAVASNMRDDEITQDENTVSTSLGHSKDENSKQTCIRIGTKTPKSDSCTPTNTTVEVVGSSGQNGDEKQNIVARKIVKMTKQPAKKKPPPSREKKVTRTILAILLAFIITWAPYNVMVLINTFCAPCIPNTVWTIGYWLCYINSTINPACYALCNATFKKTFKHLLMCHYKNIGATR
Also: assay procedure not described here.

Chain of 5-hydroxytryptamine receptor 2B (P41595 whole entry): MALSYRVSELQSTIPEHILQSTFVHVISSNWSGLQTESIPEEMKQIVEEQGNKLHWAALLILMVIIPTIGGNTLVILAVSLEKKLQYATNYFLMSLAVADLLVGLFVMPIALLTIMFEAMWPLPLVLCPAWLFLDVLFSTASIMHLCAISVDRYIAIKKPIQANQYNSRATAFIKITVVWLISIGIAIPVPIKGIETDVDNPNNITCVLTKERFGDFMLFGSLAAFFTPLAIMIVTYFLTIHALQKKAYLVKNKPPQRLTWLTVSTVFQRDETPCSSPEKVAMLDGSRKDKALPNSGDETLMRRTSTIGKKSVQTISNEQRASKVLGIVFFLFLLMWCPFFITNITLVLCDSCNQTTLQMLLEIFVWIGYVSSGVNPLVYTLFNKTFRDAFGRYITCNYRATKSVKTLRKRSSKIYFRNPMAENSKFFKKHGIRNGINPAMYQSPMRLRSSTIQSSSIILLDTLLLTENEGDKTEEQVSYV

Row | Compound | AC50 [1] [µM] | AC50 [2] [µM] | AC50 (Prothrombin) [µM] | AC50 [3] [µM] | AC50 [4] [µM] | AC50 [5] [µM] | AC50 (Acetylcholinesterase) [µM] | AC50 [6] [µM] | AC50 [7] [µM] | AC50 (Thromboxane A2 receptor [8]) [µM] | AC50 [9] [µM] | AC50 (Thromboxane A2 receptor [10]) [µM] | AC50 (Histamine H3 receptor) [µM] | AC50 [11] [µM]
1 | CC1(CCN2CCCCC2)C(=O)CCc2ccccc21 (stereo not drawn) [NEPINALONE] | > 30 | 18.3 | > 30 | > 30 | > 30 | > 30 | > 30 | > 30 | > 30 | > 30 | > 30 | > 30 | > 30 | 7.14
2 | COC(=O)C[C@](O)(CCCC(C)(C)O)C(=O)O[C@@H]1C(OC)=C[C@]23CCCN2CCc2cc4c(cc2[C@H]13)OCO4 [OMACETAXINE MEPESUCCINATE] | > 30 | > 30 | > 30 | > 30 | > 30 | > 30 | > 30 | > 30 | > 30 | > 30 | > 30 | > 30 | > 30 | > 30
3 | COc1cccc(C(=O)CCN[C@@H](C)[C@H](O)c2ccccc2)c1 [OXYFEDRINE] | > 30 | 5.96 | > 30 | 2.97 | 10 | > 30 | > 30 | > 30 | 0.0096 | > 30 | > 30 | > 30 | > 30 | > 30
4 | CC[N+](C)(CC)CCOC(=O)C(O)(c1ccccc1)C1CCCCC1 (stereo not drawn) [OXYPHENONIUM] | > 30 | > 30 | > 30 | 21.9 | 14 | > 30 | > 30 | > 30 | > 30 | > 30 | > 30 | > 30 | > 30 | 0.003
5 | C[C@@H]1C[C@H]2[C@@H]3C[C@H](F)C4=CC(=O)C=C[C@]4(C)[C@H]3[C@@H](O)C[C@]2(C)[C@@]1(O)C(=O)CO [PARAMETHASONE] | > 30 | > 30 | > 30 | > 30 | > 30 | > 30 | > 30 | > 30 | > 30 | > 30 | > 30 | > 30 | > 30 | > 30
6 | N[C@@H](Cc1ccccc1)C(=O)O [PHENYLALANINE] | > 30 | > 30 | > 30 | > 30 | > 30 | > 30 | > 30 | > 30 | > 30 | > 30 | > 30 | > 30 | > 30 | > 30
7 | CCCn1cnc2c1c(=O)n(CCCCC(C)=O)c(=O)n2C [PROPENTOFYLLINE] | > 30 | > 30 | > 30 | > 30 | > 30 | > 30 | > 30 | 8.96 | > 30 | > 30 | > 30 | > 30 | > 30 | > 30
